Counter-ions that a name gives are not always drawn.
Assays:
Type in all cases: physicochemical
[1] = Heating under atmospheric pressure, then tested by XRD; conditions: 10 h
[2] = Exposure in controlled humidity cells, 7 days at room temperature, tested by XRD and KF titration; parameters: Water content: unit not given here; conditions: for Water content: KF titration
Experimental: 200 mg of Fexofenadine HCl Form XVI was spread as a thin layer on an open dish, and then put in controlled humidity cells of 0, 20, 40, 60 and 80% RH for 7 days at room temperature. The samples were tested by XRD and by KF titration.

[3] = Microscope observation of particle morphology; conditions: hydrochloride
Text: The morphology of an active pharmaceutical substance plays an important role in drug performance, and has a profound impact on handling during milling processes and during drug product manufacturing. […].

[4] = Exposure of Form XX in controlled humidity cells, 9 days at 30 C, tested by XRD

| Water content ([2]; 0% RH) | Water content ([2]; 20% RH) | Crystal Form content by XRD ([2]; 20% RH, hydrochloride) | Water content ([2]; 40% RH) | Crystal Form content by XRD ([2]; 40% RH, hydrochloride) | Water content ([2]; 60% RH) | Crystal Form content by XRD ([2]; 60% RH, hydrochloride) | Crystal Form content by XRD ([2]; 80% RH) | Water content ([2]; 80% RH) | SMILES | Crystal Form content by XRD ([2]; 0% RH, hydrochloride) | other results |
| --- | --- | --- | --- | --- | --- | --- | --- | --- | --- | --- | --- |
| 4.2 | 7.0 | XVI | 7.3 | XVI | 7.3 | XVI | XVI | 8.3 | CC(C)(C(=O)O)c1ccc(C(O)CCCN2CCC(C(O)(c3ccccc3)c3ccccc3)CC2)cc1 (centres unmarked) [Fexofenadine HCl Form XVI, fexofenadine hydrochloride] | mixture of Fexofenadine HCl Form XVI and Fexofenadine HCl Form XX | Resulted Form ([1]; 65 C.): XVI; Resulted Form ([1]; 80 C.): XVI + Amorphous; Resulted Form ([1]; 100 C., hydrochloride): mixture of Fexofenadine HCl Form XVI and amorphous Form; Resulted Form ([1]; 100 C., listed as XVI, hydrochloride): XVI + Amorphous |
|  |  |  |  |  |  |  |  |  | CC(C)(C(=O)O)c1ccc(C(O)CCCN2CCC(C(O)(c3ccccc3)c3ccccc3)CC2)cc1 (centres unmarked) [Fexofenadine HCl Form XX, fexofenadine hydrochloride] |  | Particle morphology ([3]; listed as fexofenadine HCl form XX): small rod shape particles; Crystal Form content by XRD ([4]; 40% RH): XVI + XX; Water content ([4]; 40% RH): 4.9; Crystal Form content by XRD ([4]; 60% RH): XVI + XX; Water content ([4]; 60% RH): 5.2; Crystal Form content by XRD ([4]; 80% RH): XVI; Water content ([4]; 80% RH): 7.8 |
|  |  |  |  |  |  |  |  |  | CC(C)(C(=O)O)c1ccc(C(O)CCCN2CCC(C(O)(c3ccccc3)c3ccccc3)CC2)cc1 (centres unmarked) [Fexofenadine HCl form I, fexofenadine hydrochloride, reference compound] |  | Particle morphology ([3]; listed as fexofenadine HCl form I): needles morphology |
| 4.2 | 7.0 | 93% XVI, 7% Form XX | 7.3 | 96% XVI, 4% Form XX | 7.3 | 96% XVI, 4% Form XX | XVI | 8.3 | CC(C)(C(=O)O)c1ccc(C(O)CCCN2CCC(C(O)(c3ccccc3)c3ccccc3)CC2)cc1 (centres unmarked) [mixture of Fexofenadine HCl Form XVI and Fexofenadine HCl Fo] [fexofenadine hydrochloride] | 85% XVI, 15% Form XX |  |
